Reference: patent US11845748B2, “Bicyclic pyridine N-oxide derivatives useful as a factor XIa inhibitors” (Janssen Pharmaceutica NV, priority 2021, dated 2023)

Tests used:
Factor XIa = Factor XIa (Homo sapiens, UniProt P03951); test: Factor XIa inhibition assay utilizing a fluorophore-quencher pair peptide substrate (FLINT); assay type: biochemical; settings: kinetic reads at 5 min intervals over 30 min; 30 min preincubation; 5Fam-KLTRAETV-K5Tamra substrate; read-out: FXIa (KIN) IC50
Text: Biological Example 1: Factor XIa Inhibition Assay Utilizing a Fluorophore-Quencher Pair Peptide Substrate
A fluorescence intensity (FLINT) based assay was used to monitor inhibition of Factor XIa. The peptide substrate, 5Fam-KLTRAETV-K5Tamra (purchased from New England Peptide) was chosen based on the […]. Conversion of zymogen […]. The custom peptide used in this assay was based on the Arg146 cleavage site of FXI. The peptide substrate was designed with a fluorophore-quencher pair, where the fluorescence is quenched until FXIa cleaves the 8-mer peptide after the Arg residue. The substrate KM was fit to a substrate inhibition model whereby kcat=0.86 s^−1, KM=12.4 μM, Ki=61.6 μM with an enzymatic efficiency, and kcat/KM=69523 M^−1s^−1.
The Factor XIa FLINT assay was used with the following 5Fam-KLTRAETV-K5Tamra assay buffer: 50 mM Tris, pH 7.5, 100 mM NaCl, 5 mM CaCl2, 0.1 mg/mL BSA, 0.03% CHAPS. Assay buffer was prepared by mixing all ingredients fresh. 5Fam-KLTRAETV-K5Tamra peptide substrate was first prepared at 10 mM in 100% DMSO, then diluted to 3 mM in 100% DMSO. Assay buffer was then added directly to the 3 mM stock of substrate to prepare the 30 μM 2× working concentration (15 μM final concentration). The 2× Factor XIa stock solution was prepared by diluting 6.562 μM stock in 1× assay buffer for a 200 pM working stock solution (100 pM final concentration).
Test compound(s) were run in an 11-point, 3-fold serial dilution with a final top compound concentration of 100 nM. Final DMSO in assay was 2%. FXIa was preincubated with compound for 30-minutes and then substrate was added to initiate the reaction. The assay was run with either end point (EP) reads at 30 min or kinetic (KIN) reads at 5 min intervals over 30 minutes. The time course was linear using 100 μM FXIa greater than 30 minutes. More specifically, the assay was run as follows: • 100 nL of 0.01 mM test compound was dispensed into black 384-well non-binding Greiner BioOne 784900 plate for 0.1 μM final concentration; • 5 μL of 1× assay buffer was dispensed to column 24 (low control) and 5 μL 2× Factor XIa solution was dispensed to columns 1-23 (column 23 high control); • the plate was centrifuged with a “cover” plate at 500 rpm for 1 min the plate was pre-incubated for 30 minutes at room temperature with plate covered; • 5 μL of 2× 5Fam-KLTRAETV-K5Tamra peptide substrate was dispensed into the entire plate, columns 1-24; • the plate was centrifuged with a “cover” plate at 500 rpm for 1 min; • the plate was read monitoring fluorescence intensity on the BMG PHERAStar at room temperature, using fluorescence module 485 nm/520 nm.
Percent inhibition (IC50) curves were generated per compound tested, and data was analyzed using a 4-parameter logistic fit using GeneData Screener. The relative fluorescence unit (RFU) values were normalized to percent inhibition using the following equation: % inhibition=((HC−LC)−(compound−LC)/(HC−LC))*100 where LC—low control=mean signal of no Factor XIa or 100% inhibition of Factor XIa; HC—high control=mean signal of Factor XIa+5Fam-KLTRAETV-K5Tamra peptide substrate with DMSO only.
(§1) An 11-point dose response curve for the test compound(s) was generated using GENDATA to determine IC50 value based on the following equation: Y=Bottom+(Top−Bottom)/(1+10^((log IC50−X)*HillSlope))
where Y is the % inhibition in the presence of X inhibitor concentration, Top=high control=mean signal of Factor XIa+5Fam-KLTRAETV-K5Tamra peptide substrate with DMSO only; Bottom=low control−mean signal of no Factor XIa or 100% inhibition of Factor XIa; HillSlope—Hill coefficient; and IC50=concentration of compound with 50% inhibition in relation to top/high control. […]

human plasma kallikrein = human plasma kallikrein (Homo sapiens, UniProt P03952); test: Kallikrein inhibition assay utilizing a quenched AMC peptide substrate (FLINT); assay type: biochemical; settings: kinetic reads at 5 min intervals over 30 min; 30 min preincubation; Z-Gly-Pro-Arg-AMC substrate; read-out: Kallikrein (KIN) IC50
Chain of human plasma kallikrein (P03952 391-638 limits assumed): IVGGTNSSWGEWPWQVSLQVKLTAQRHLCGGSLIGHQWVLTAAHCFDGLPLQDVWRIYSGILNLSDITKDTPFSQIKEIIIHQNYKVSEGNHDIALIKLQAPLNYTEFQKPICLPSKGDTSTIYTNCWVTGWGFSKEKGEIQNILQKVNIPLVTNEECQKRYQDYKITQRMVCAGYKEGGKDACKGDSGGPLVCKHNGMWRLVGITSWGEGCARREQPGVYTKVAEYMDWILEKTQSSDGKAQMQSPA
Chain of human plasma kallikrein (P03952 20-390 partner limits assumed): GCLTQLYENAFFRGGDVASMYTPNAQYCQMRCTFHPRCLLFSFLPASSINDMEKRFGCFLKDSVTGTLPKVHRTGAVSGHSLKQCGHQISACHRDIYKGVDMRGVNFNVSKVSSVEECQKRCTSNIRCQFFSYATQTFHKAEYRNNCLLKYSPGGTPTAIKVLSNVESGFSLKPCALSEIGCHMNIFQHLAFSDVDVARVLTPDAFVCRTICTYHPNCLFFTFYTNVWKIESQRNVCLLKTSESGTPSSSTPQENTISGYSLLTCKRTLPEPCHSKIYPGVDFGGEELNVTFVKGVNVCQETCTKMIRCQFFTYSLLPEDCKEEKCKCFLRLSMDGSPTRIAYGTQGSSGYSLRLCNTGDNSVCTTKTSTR
Experimental: Biological Example 2: Kallikrein Inhibition Assay Utilizing a Quenched AMC Peptide Substrate
A fluorescence intensity (FLINT) based assay was used to monitor inhibition of human plasma kallikrein. The peptide substrate, Z-Gly-Pro-Arg-AMC (Purchased from Bachem; Catalog #I-1150) was chosen based on its relatively low KM for kallikrein which enables running the assay at lower substrate concentrations to control background fluorescence. The kinetic parameters for this substrate were determined by fitting titration data to the Michaelis-Menten equation yielding a KM=40 μM, kcat=0.76 s^−1, and kcat/KM=18932 M^−1s^−1.
The Kallikrein FLINT assay was used with the following Z-Gly-Pro-Arg-AMC assay buffer: 50 mM Tris, pH 7.5, 100 mM NaCl, 5 mM CaCl2, 0.1 mg/mL BSA, 0.03% CHAPS. Assay buffer was prepared by mixing all ingredients fresh. 2× Z-Gly-Pro-Arg-AMC peptide substrate was prepared by diluting 10 mM stock into 1× assay buffer for a 100 μM working concentration (50 μM final concentration). The 2× kallikrein stock solution was prepared by diluting 14.76 μM stock in 1× assay buffer for a 4 nM working stock solution (2 nM final concentration).
Test compound(s) were run in an 11-point, 3-fold serial dilution with a final top compound concentration of 1 μM. Final DMSO in assay was 2%. Plasma kallikrein was pre-incubated for 30-minute with compound and then 50 μM substrate was added to initiate the reaction. The assay was run with kinetic (KIN) reads at 5 min intervals over 30 minutes. The time course was linear using 2 nM kallikrein greater than 30 minutes. More specifically, the assay was run as follows: • 100 nL of 0.1 mM test compound was dispensed into black 384-well non-binding Greiner BioOne 784900 plate for 1 μM final concentration; • 5 μL of 1× assay buffer was dispensed to columns 24 (low control) and 5 μL 2× human kallikrein enzyme solution was dispensed to columns 1-23 (column 23 high control); • the plate was centrifuged with a “cover” plate at 500 rpm for 1 min the plate was pre-incubated for 30 minutes at room temperature with plate covered; • 5 μL of 2× Z-Gly-Pro-Arg-AMC peptide substrate was dispensed into the entire plate, columns 1-24; • the plate was centrifuged with a “cover” plate at 500 rpm for 1 min; • the plate was read monitoring fluorescence intensity on the BMG PHERAStar at room temperature, using fluorescence module 340 nm/440 nm.
Percent inhibition (IC50) curves were generated per compound tested, and data was analyzed using a 4-parameter logistic fit using GeneData Screener. The relative fluorescence unit (RFU) values were normalized to percent inhibition using the following equation: % inhibition=((HC−LC)−(compound−LC)/(HC−LC))*100
where LC—low control=mean signal of […] 100% inhibition of human kallikrein enzyme; HC—high control=mean signal of […]+Z-Gly-Pro-Arg-AMC peptide substrate with DMSO only.
as §1
where Y is the % inhibition in the presence of X inhibitor concentration, Top=high control=mean signal of human kallikrein enzyme+Z-Gly-Pro-Arg-AMC peptide substrate with DMSO only; Bottom=low control−mean signal of no human kallikrein enzyme or 100% inhibition of human kallikrein enzyme; HillSlope—Hill coefficient; and IC50=concentration of compound with 50% inhibition in relation to top/high control.
Representative compounds of formula (I) of the present invention were tested according to the procedure described in Biological Example 1 and Biological Example 2 above, with results as listed in Table 2, below. Results listed in the (ER) column were measured using endpoint reads where a single fluorescence reading was measured for each well at a 30 min timepoint. […]

Chain of Factor XIa (P03951 388-625 limits assumed): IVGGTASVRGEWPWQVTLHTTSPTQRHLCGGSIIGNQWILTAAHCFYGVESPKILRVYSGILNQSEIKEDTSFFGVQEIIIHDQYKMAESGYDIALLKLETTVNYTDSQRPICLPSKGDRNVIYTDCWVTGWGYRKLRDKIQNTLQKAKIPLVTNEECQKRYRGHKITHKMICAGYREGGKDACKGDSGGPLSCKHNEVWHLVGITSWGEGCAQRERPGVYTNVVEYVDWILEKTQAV
Chain of Factor XIa (P03951 19-387 partner limits assumed): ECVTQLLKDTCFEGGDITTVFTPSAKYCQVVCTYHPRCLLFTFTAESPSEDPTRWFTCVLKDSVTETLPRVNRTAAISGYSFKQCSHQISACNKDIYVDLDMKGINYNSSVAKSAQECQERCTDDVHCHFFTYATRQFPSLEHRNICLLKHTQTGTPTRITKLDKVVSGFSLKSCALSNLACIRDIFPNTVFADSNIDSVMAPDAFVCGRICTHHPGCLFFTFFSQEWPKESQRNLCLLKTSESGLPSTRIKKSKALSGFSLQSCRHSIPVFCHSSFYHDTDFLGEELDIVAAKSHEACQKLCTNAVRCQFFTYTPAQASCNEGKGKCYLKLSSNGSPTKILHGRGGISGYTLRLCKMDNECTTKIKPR

| Structure (SMILES) | IC50 (Factor XIa) [nM] | IC50 (human plasma kallikrein) [nM] |
| --- | --- | --- |
| [O-][n+]1cc(-c2c(-n3cnnn3)ccc(Cl)c2F)cc2c1C(n1cc(-c3ccnc(C4CC4)c3)cn1)CC2 (racemic) [ID No. 24, 3-(3-Chloro-2-fluoro-6-(1H-tetrazol-1-yl)phenyl)-7-(4-(2-cyclopropylpyridin-4-yl)-1H-pyrazol-1-yl)-6,7-dihydro-5H-cyclopenta[b]pyridine 1-oxide] | 40 | 70 |
| NC(=O)c1ccc(-c2cnn(C3CCc4cc(-c5c(-n6cc(C(F)(F)F)nn6)ccc(Cl)c5F)c[n+]([O-])c43)c2)cc1F (single isomer, unassigned) [ID No. 27, (R*)7-(4-(4-Carbamoyl-3-fluorophenyl)-1H-pyrazol-1-yl)-3-(3-chloro-2-fluoro-6-(4-(trifluoromethyl)-1H-1,2,3-triazol-1-yl)phenyl)-6,7-dihydro-5H-cyclopenta[b]pyridine 1-oxide] | > 100 | 240 |
| Cn1nncc1-c1cnn([C@@H]2CCc3cc(-c4c(-n5cnnn5)ccc(Cl)c4F)c[n+]([O-])c32)c1 [ID No. 26, (R)-3-(3-Chloro-2-fluoro-6-(1H-tetrazol-1-yl)phenyl)-7-(4-(1-methyl-1H-1,2,3-triazol-5-yl)-1H-pyrazol-1-yl)-6,7-dihydro-5H-cyclopenta[b]pyridine 1-oxide] | 42 | 4040 |
| Nc1ccc(-c2cnn(C3CCCc4cc(-c5c(-n6cnnn6)ccc(Cl)c5F)c[n+]([O-])c43)c2)c(F)n1 (single isomer, unassigned) [ID No. 32, (S*)-8-(4-(6-Amino-2-fluoropyridin-3-yl)-1H-pyrazol-1-yl)-3-(3-chloro-2-fluoro-6-(1H-tetrazol-1-yl)phenyl)-5,6,7,8-tetrahydroquinoline 1-oxide] | > 10000 | > 10000 |
| CC(=O)Nc1ccc(-c2cnn(C3CCCc4cc(-c5c(-n6cnnn6)ccc(Cl)c5F)c[n+]([O-])c43)c2)c(F)n1 (racemic) [ID No. 29, 8-(4-(6-Acetamido-2-fluoropyridin-3-yl)-1H-pyrazol-1-yl)-3-(3-chloro-2-fluoro-6-(1H-tetrazol-1-yl)phenyl)-5,6,7,8-tetrahydroquinoline 1-oxide] | 765 | 8480 |
| Nc1ccc(-c2cnn(C3CCc4cc(-c5c(-n6cnnn6)ccc(Cl)c5F)c[n+]([O-])c43)c2)c(Cl)n1 (single isomer, unassigned) [ID No. 21, (R*)-7-(4-(6-Amino-2-chloropyridin-3-yl)-1H-pyrazol-1-yl)-3-(3-chloro-2-fluoro-6-(1H-tetrazol-1-yl)phenyl)-6,7-dihydro-5H-cyclopenta[b]pyridine 1-oxide] | 2380 | > 10000 |
| Nc1ccc(-c2cnn(C3CCc4cc(-c5c(-n6cnnn6)ccc(Cl)c5F)c[n+]([O-])c43)c2)c(Cl)n1 (racemic) [ID No. 17, 7-(4-(6-Amino-2-chloropyridin-3-yl)-1H-pyrazol-1-yl)-3-(3-Chloro-2-fluoro-6-(1H-tetrazol-1-yl)phenyl)-6,7-dihydro-5H-cyclopenta[b]pyridine 1-oxide] | 5 | 432 |
| Nc1ccc(-c2cnn(C3CCCc4cc(-c5c(-n6cnnn6)ccc(Cl)c5F)c[n+]([O-])c43)c2)c(F)n1 (single isomer, unassigned) [ID No. 31, (R*)-8-(4-(6-Amino-2-fluoropyridin-3-yl)-1H-pyrazol-1-yl)-3-(3-chloro-2-fluoro-6-(1H-tetrazol-1-yl)phenyl)-5,6,7,8-tetrahydroquinoline 1-oxide] | 40 | 987 |
| O=C(Nc1ccc(-c2cnn(C3CCc4cc(-c5c(-n6cnnn6)ccc(Cl)c5F)c[n+]([O-])c43)c2)cc1)C1CC1 (racemic) [ID No. 16, 3-(3-Chloro-2-fluoro-6-(1H-tetrazol-1-yl)phenyl)-7-(4-(4-(cyclopropanecarboxamido)phenyl)-1H-pyrazol-1-yl)-6,7-dihydro-5H-cyclopenta[b]pyridine 1-oxide] | 25 | 316 |
| O=C(NC1CC1)c1ccc(-c2cnn(C3CCc4cc(-c5c(-n6cnnn6)ccc(Cl)c5F)c[n+]([O-])c43)c2)cc1 (racemic) [ID No. 18, 3-(3-Chloro-2-fluoro-6-(1H-tetrazol-1-yl)phenyl)-7-(4-(4-(cyclopropylcarbamoyl)phenyl)-1H-pyrazol-1-yl)-6,7-dihydro-5H-cyclopenta[b]pyridine 1-oxide] | 282 | 1090 |
| COC(=O)Nc1ccc(-c2cn(C3CCc4cc(-c5c(-n6cnnn6)ccc(Cl)c5F)c[n+]([O-])c43)cn2)cc1 (stereo not shown) [ID No. 2, 3-(3-Chloro-2-fluoro-6-(1H-tetrazol-1-yl)phenyl)-7-(4-(4-((methoxycarbonyl)amino)phenyl)-1H-imidazol-1-yl)-6,7-dihydro-5H-cyclopenta[b]pyridine 1-oxide] | 24 | 461 |
